Test results as given in patent US8304447B2, “2-acylaminopropoanol-type glucosylceramide synthase inhibitors” (Genzyme Corporation, priority 2007, dated 2012).

System: GM3
Experiment: GM3 Elisa assay
Format: cell-based
Conditions: 48 h, Table 1; B16-FO cells, 2 days incubation; read-out: IC50_uM_Mean
Experimental: B16-FO cells from ATCC (American Tissue Culture Collection) were grown in DMEM media (ATCC) with 10% Fetal Bovine Serum (Hyclone) and Pen/Step/Glutamine (Biowhittaker). 4000 cells per well were plated on collagen coated plates (BD) and allowed to attach for 6 hours in an incubator (37 degrees, 5% CO2). After 6 hours the compounds and controls were added to the wells, the plates mixed and returned to the incubator for 2 days. Day of assay the cells were fixed for 20 minutes with 1% formaldehyde and then washed with Tris Buffered Saline (TBS) 3 times, 150 μl of TBS was left in the wells and 50 μl of goat serum (Invitrogen) was added, the plates mixed and incubated for 1 hour at room temperature. The plates were flicked and the cells incubated with the monoclonal Antibody to GM3 (NeuAc) (Cosmo) for 45 minutes as room temperature. The plates were then washed 3 times with TBS, leaving 150 μl of TBS in the wells and Peroxidase AffinPure F (ab′) 2 frag Gt Anti-mouse IgM, μ Chain Specific (Jackson Immuno Research) was added in 50 μl, the plates mixed and incubated for 45 minutes at room temperature. The plates were washed 3 times with TBS, flicked and blotted and 100 μl of Quantablu (Pierce) was added to the wells and incubated for 1 hour then read on a Fluorometer at Ex 325 and Em 420. The data was then analyzed using standard programs.

| Structure (SMILES) | IC50 [nM] |
| --- | --- |
| Cc1ccc(OCCC(=O)N[C@H](CN2CCCC2)[C@H](O)c2ccc3c(c2)OCCO3)cc1 [Compound 59, N-((1R,2R)-1-(2,3-dihydrobenzo[β][1,4]dioxin-6-yl)-1-hydroxy-3-(pyrrolidin-1-yl)propan-2-yl)-3-(p-tolyloxy)propanamide] | ≤ 100 |
| O=C(CCOc1ccccc1F)N[C@H](CN1CCCC1)[C@H](O)c1ccc2c(c1)OCCO2 [Compound 60, N-((1R,2R)-1-(2,3-dihydrobenzo[β][1,4]dioxin-6-yl)-1-hydroxy-3-(pyrrolidin-1-yl)propan-2-yl)-3-(2-fluorophenoxy)propanamide] | ≤ 100 |
| COc1ccc(OCCC(=O)N[C@H](CN2CCCC2)[C@H](O)c2ccc3c(c2)OCCO3)cc1 [Compound 61, N-((1R,2R)-1-(2,3-dihydrobenzo[β][1,4]dioxin-6-yl)-1-hydroxy-3-(pyrrolidin-1-yl)propan-2-yl)-3-(4-methoxyphenoxy)propanamide] | ≤ 100 |
| COc1cccc(-c2ccc(CC(=O)N[C@H](CN3CCCC3)[C@H](O)c3ccc4c(c3)OCCO4)cc2)c1 [Compound 63, N-((1R,2R)-1-(2,3-dihydrobenzo[β][1,4]dioxin-6-yl)-1-hydroxy-3-(pyrrolidin-1-yl)propan-2-yl)-2-(3 methoxybiphenyl-4-yl)acetamide] | ≤ 100 |
| O=C(Cc1ccc(-c2cccc(Cl)c2)cc1)N[C@@H](CN1CCCC1)[C@@H](O)c1ccc2c(c1)OCCO2 [Compound 65, 2-(3′-chlorobiphenyl-4-yl)-N-((1R,2R)-1-(2,3-dihydrobenzo[β][1,4]dioxin-6-yl)-1-hydroxy-3-(pyrrolidin-1-yl)propan-2-yl)acetamide] | ≤ 100 |
| O=C(Nc1cccc(C(F)(F)F)c1)N[C@H](CN1CCCC1)[C@H](O)c1ccc2c(c1)OCCO2 [Compound 68, 1-((1R,2R)-1-(2,3-dihydrobenzo[β][1,4]dioxin-6-yl)-1-hydroxy-3-(pyrrolidin-1-yl)propan-2-yl)-3-(3-(trifluoromethyl)phenyl)urea] | 100 to 1000 |
| O=C(Nc1ccc2ccccc2c1)N[C@H](CN1CCCC1)[C@H](O)c1ccc2c(c1)OCCO2 [Compound 69, 1-((1R,2R)-1-(2,3-dihydrobenzo[β][1,4]dioxin-6-yl)-1-hydroxy-3-(pyrrolidin-1-yl)propan-2-yl)-3-(naphthalen-2-yl)urea] | 100 to 1000 |
| O=C(Nc1ccc(-c2ccccc2)cc1)N[C@H](CN1CCCC1)[C@H](O)c1ccc2c(c1)OCCO2 [Compound 70, 1-(biphenyl-4-yl)-3-((1R,2R)-1-(2,3-dihydrobenzo[β][1,4]dioxin-6-yl)-1-hydroxy-3-(pyrrolidin-1-yl)propan-2-yl)urea] | ≤ 100 |
| C[C@H](NC(=O)N[C@H](CN1CCCC1)[C@H](O)c1ccc2c(c1)OCCO2)c1cccc2ccccc12 [Compound 71, 1-((1R,2R)-1-(2,3-dihydrobenzo [β][1,4]dioxin-6-yl)-1-hydroxy-3-(pyrrolidin-1-yl)propan-2-yl)-3-((S)-1-(naphthalen-1-yl)ethyl)urea] | 100 to 1000 |
| COc1cccc(CNC(=O)N[C@H](CN2CCCC2)[C@H](O)c2ccc3c(c2)OCCO3)c1 [Compound 80, 1-((1R,2R)-1-(2,3-dihydrobenzo[β][1,4]dioxin-6-yl)-1-hydroxy-3-(pyrrolidin-1-yl)propan-2-yl)-3-(3-methoxybenzyl)urea] | 100 to 1000 |
| O=C(Nc1ccc(C(F)(F)F)cc1)N[C@H](CN1CCCC1)[C@H](O)c1ccc2c(c1)OCCO2 [Compound 81, 1-((1R,2R)-1-(2,3-dihydrobenzo[β][1,4]dioxin-6-yl)-1-hydroxy-3-(pyrrolidin-1-yl)propan-2-yl)-3-(4-(trifluoromethyl)phenyl)urea] | 100 to 1000 |
| O=C(Nc1ccc(OC(F)(F)F)cc1)N[C@H](CN1CCCC1)[C@H](O)c1ccc2c(c1)OCCO2 [Compound 82, 1-((1R,2R)-1-(2,3-dihydrobenzo[β][1,4]dioxin-6-yl)-1-hydroxy-3-(pyrrolidin-1-yl)propan-2-yl)-3-(4-(trifluoromethoxy)phenyl)urea] | ≤ 100 |
| O=C(COc1ccc(Cl)cc1)N[C@H](CN1CCCC1)[C@H](O)c1ccc2c(c1)OCCO2 [Compound 83, 2-(4-chlorophenoxy)-N-((1R,2R)-1-(2,3-dihydrobenzo[β][1,4]dioxin-6-yl)-1-hydroxy-3-(pyrrolidin-1-yl)propan-2-yl)acetamide] | ≤ 100 |
| O=C(Cc1cccc(Oc2ccccc2)c1)N[C@H](CN1CCCC1)[C@H](O)c1ccc2c(c1)OCCO2 [Compound 86, N-((1R,2R)-1-(2,3-dihydrobenzo[b][1,4]dioxin-6-yl)-1-hydroxy-3-(pyrrolidin-1-yl)propan-2-yl)-2-(3-phenoxyphenyl)acetamide] | ≤ 100 |

Other lines, results leading:

| IC50 [nM] | Structure (SMILES) |
| --- | --- |
| ≤ 100 | O=C(COc1ccc(Cl)c(Cl)c1)N[C@H](CN1CCCC1)[C@H](O)c1ccc2c(c1)OCCO2 [Compound 87, 2-(3,4-dichlorophenoxy)-N-((1R,2R)-1-(2,3-dihydrobenzo[β][1,4]dioxin-6-yl)-1-hydroxy-3-(pyrrolidin-1-yl)propan-2-yl)acetamide] |
| 100 to 1000 | O=C(N[C@H](CN1CCCC1)[C@H](O)c1ccc2c(c1)OCCO2)c1cc(-c2cccs2)on1 [Compound 90, N-((1R,2R)-1-(2,3-dihydrobenzo[β][1,4]dioxin-6-yl)-1-hydroxy-3-(pyrrolidin-1-yl)propan-2-yl)-5-(thiophen-2-yl)isoxazole-3-carboxamide] |
| ≤ 100 | COc1ccc(CCC(=O)N[C@H](CN2CCCC2)[C@H](O)c2ccc3c(c2)OCCO3)cc1Cl [Compound 92, 3-(3-chloro-4-methoxyphenyl)-N-((1R,2R)-1-(2,3-dihydrobenzo[β][1,4]dioxin-6-yl)-1-hydroxy-3-(pyrrolidin-1-yl)propan-2-yl)propanamide] |
| ≤ 100 | O=C(CCc1ccc(C(F)(F)F)cc1)N[C@H](CN1CCCC1)[C@H](O)c1ccc2c(c1)OCCO2 [Compound 96, N-((1R,2R)-1-(2,3-dihydrobenzo[β][1,4]dioxin-6-yl)-1-hydroxy-3-(pyrrolidin-1-yl)propan-2-yl)-3-(4-(trifluoromethyl)phenyl)propanamide] |
| ≤ 100 | O=C(CCCc1nc2ccccc2s1)NC(CN1CCCC1)[C@H](O)c1ccc2c(c1)OCCO2 (stereo partly drawn) [Compound 101, 4-(benzo[d]thiazol-2-yl)-N-((1R,2R)-1-(2,3-dihydrobenzo[β][1,4]dioxin-6-yl)-1-hydroxy-3-(pyrrolidin-1-yl)propan-2-yl)butanamide] |
| 1000 to 3000 | O=C(CCCCCNS(=O)(=O)c1ccc2c(c1)OCCO2)N[C@H](CN1CCCC1)[C@H](O)c1ccc2c(c1)OCCO2 [Compound 102, N-((1R,2R)-1-(2,3-dihydrobenzo[β][1,4]dioxin-6-yl)-1-hydroxy-3-(pyrrolidin-1-yl)propan-2-yl)-6-(2,3-dihydrobenzo[β][1,4]dioxine-6-sulfonamido)hexanamide] |
| ≤ 100 | O=C(Cc1ccc(OC(F)(F)F)cc1)N[C@H](CN1CCCC1)[C@H](O)c1ccc2c(c1)OCCO2 [Compound 103, N-((1R,2R)-1-(2,3-dihydrobenzo[β][1,4]dioxin-6-yl)-1-hydroxy-3-(pyrrolidin-1-yl)propan-2-yl)-2-(4-(trifluoromethoxy)phenyl)acetamide] |
| 100 to 1000 | O=C(CCCCNC(=O)c1ccccc1)N[C@H](CN1CCCC1)[C@H](O)c1ccc2c(c1)OCCO2 [Compound 104, N-(5-((1R,2R)-1-(2,3-dihydrobenzo[β][1,4]dioxin-6-yl)-1-hydroxy-3-(pyrrolidin-1-yl)propan-2-ylamino)-5-oxopentyl)benzamide] |
